One data set concerns Aphidinus matricariae. The data set is described as follows: Residual contact test on adults (Table 25). The data set is classed as in vivo, adult females. The procedure:
Residual contact test on adults of Aphidinus matricariae. Adults of A. matricariae are exposed to residues of the active ingredients freshly applied on glass plates forming cages, then the survivors are counted.
Treatment: test product and control treated with water.
Replicates: at least 3. Plot size (net): 1 cage.
Parasites of known age (24 hours) are used. […]
10 females of A. matricariae are introduced into each cage and supplied with honey as food. The number of females surviving exposure is determined after 1, 5 and 24 hours, in independent runs. Total number of survivors is calculate for each cage.

In data set [1] the test system is T. confusum. The data set is described as follows: Contact test with piperonyl butoxide (Table 17). The data set is classed as in vivo, flour-beetle (T. confusum), imagos. Particulars: for mortality at 25 µg/disc / mortality at 50 µg/disc / mortality at 100 µg/disc / mortality at 200 µg/disc / mortality at 400 µg/disc: Tribolium confusum, 24 h, PBO, where added, 0.5 mg/disc; for mortality at 25 µg/disc: 0.025 mg/disc; for mortality at 50 µg/disc: 0.05 mg/disc; for mortality at 100 µg/disc: 0.1 mg/disc; for mortality at 200 µg/disc: 0.2 mg/disc; for mortality at 400 µg/disc: 0.4 mg/disc. The procedure: The active ingredient is dissolved in a 1:2 mixture of oil and acetone; filter paper discs (Whatman No. 1, diameter 9 cm) are impregnated with the solutions of the corresponding stereoisomers and enantiomer-pairs, respectively. The acetone is allowed to evaporate, whereupon the insects are exposed to filter papers discs placed in Petri-dishes. Three parallels are used on each dose and 15 insects are placed into each Petri-dish. The percental mortality is determined after 24 hours. The corrected percent mortality is calculated by means of the Abbot Formula.
Imagos of flour-beetle (T. confusum) are treated in an analogous manner to Example 41. As synergist piperonyl butoxide is used in a dose of 0.5 mg/disc.

A further data set has as its system house fly. As to the kind of experiment: Topical LD50 on house fly (mg/kg). As to conditions: Musca domestica, approximate, topically. The class given is in vivo. The source says: The said selectivity index of the enantiomer-pair Ia amounts to 50/0.45=111.
In addition to the synergistic effect the composition of the present invention has a number of further advantages too and for this reason it is an outstanding product. It is very important that the compositions of the present invention are less toxical towards mammals than the hitherto known compositions of similar efficiency. […] The said selectivity index of Ia amounts to 50/0.45=111.

The test system of data set [2] is T. confusum. As to the kind of experiment: Filter paper contact test with piperonyl butoxide (Table 7). The data set is classed as in vivo, confused flour-beetle (T. confusum), imagos. As to conditions: for mortality at 25 µg/disc / mortality at 50 µg/disc / mortality at 100 µg/disc / mortality at 200 µg/disc / mortality at 400 µg/disc: Tribolium confusum, 24 h, PBO, where added, 0.5 mg/disc; for mortality at 25 µg/disc: 0.025 mg/disc; for mortality at 50 µg/disc: 0.05 mg/disc; for mortality at 100 µg/disc: 0.1 mg/disc; for mortality at 200 µg/disc: 0.2 mg/disc; for mortality at 400 µg/disc: 0.4 mg/disc. The procedure: (§1) The stereoisomers are dissolved in a 1:2 mixture of mineral oil and acetone and filter paper discs (Whatman No. 1., diameter 9 cm) are impregnated with the corresponding dosage of the solution of the active ingredient. The acetone is allowed to evaporate and the insects are examined on filter paper discs placed into Petri-dishes. Three parallels are used for each dose and 15 animals are placed in each Petri-dish. Mortality rate is determined after 24 hours. The corrected mortality % data are calculated by means of the Abbot formula.
T. confusum (confused flour-beetle) imagos are treated according to Example 20 and percental mortality is determined after 24 hours. The dose of piperonyl butoxide (referred to furtheron as "[…]") amounts to 0.5 mg/disc The results are disclosed in Table 7.

The next data set has as its system Hyphantria cunea. As to the kind of experiment: Topical test on fall webworm (Table 8). The data set is classed as in vivo, L7-L8 larvae. As to conditions: 24 h. The procedure: The active ingredients are dissolved in 2-ethoxyethanol and the solutions are applied in the form of 0.2 μl droplets onto the back of fall webworm (Hyphantria cunea) of L7 -L8 larvae stage. The treated worms are placed on strawberry leaves in Petri-dishes. The test is carried out by using 5 doses; 2 parallels and 10 insects for each dose.

A short description of a further data set: Repellant effect. Particulars: in vivo.
Another data set deals with bees. The data set is described as follows: Toxicity on bees. As to conditions: in vivo.
Data set [3] deals with T. confusum. As to the kind of experiment: Contact method, synergism between stereoisomers (Table 2). The data set is classed as in vivo. Particulars: Tribolium confusum, 24 h. The procedure: as §1
The test is carried out on T. confusum and the following results are obtained by the contact method for various active ingredient doses.
The test is carried out according to the method described in Example 20.

The subject of another data set is Acanthoscelides obtectus. The data set is described as follows: 5 EC formulation, insecticidal effect on bean weevil (Table 10). The class given is in vivo, bean weevil (Acanthoscelides obtectus), imagos. Particulars: 24 hours. The procedure: From a 5 EC formulation according to Example 17 50-, 100-, 200-, 400-, 800- and 1600-fold diluted emulsions are prepared by diluting with water. 0.5 ml of the emulsions are sprayed onto glass plates whereupon after drying 10 Colorado beetles (L. decemlineata) imagos are placed on each glass plate and the insects are covered. The tests are carried out with 6 doses by carrying out 3 parallels for each dose. The killed insects are counted after 48 hours and the percental mortality rate is calculated.
The insecticidal effect is tested on been weevil (Acanthoscelides obtectus) imagos. The killed insects are counted after 24 hours and the percental mortality rate is calculated.

The subject of another data set is Musca domestica. As to the kind of experiment: Topical LD50 (Table 3). The data set is classed as in vivo, house fly (Musca domestica), 3-5 days' old females. The procedure:
In Table 3 the LD50 values of the Ig and Ii isomers and those of the Ib isomer-pair are disclosed. The data are topically measured.
The active ingredients are dissolved in 2-ethoxyethanol (cellosolve) and 0.3 μl droplets of the solutions are applied onto the dorsal cuticulum of 3-5 days' old female house flies. 10 animals are used and 2 parallels are carried out for each dose. The tests are carried out for 5 dose levels between activity limits of 0% and 100%. After treatment the flies are placed into glass vials. Mortality is determined after 24 hours. Data are transformed to log10 dosage and probit mortality. LD50 and confidence interval values are calculated by linear regression analysis of the log-probit data. The expected values required for the calculation of synergism are obtained by means of harmonic average. The synergistic factor is the quotient of the expected and measured values.

Data set [4] relates to Leptinotarsa decemlineata. As to the kind of experiment: Topical test on potato beetle (Table 6). Particulars: 24 h. The class given is in vivo, imagos. The procedure: The active ingredients are dissolved in 2-ethoxyethanol and […] of the solutions are applied onto the abdominal sterna of potato beetle (Leptinotarsa decemlineata) imagos. The treatments are carried out by using two parallels and 10 insects for each dose. […]

The structures appear in SMILES notation.

For the molecule `CC1(C)C(C=C(Cl)Cl)C1C(=O)OC(C#N)c1cccc(Oc2ccccc2)c1` (centres unmarked) [Ia:Ib = 4:6], in the data set with Aphidinus matricariae (1 ppm, 1h), the Mortality % is recorded as 50%. In addition, the Mortality % in the data set on Aphidinus matricariae (1 ppm, 5h) came to 90%. The molecule also came in with a Mortality % in the data set with Aphidinus matricariae (1 ppm, 24h) of 63%. This molecule came in with a Mortality % in the data set on Aphidinus matricariae (5 ppm, 1h) of 100%. Besides, the “synergizability with piperonyl butoxide” value in the data set with T. confusum [1] (Ia:Ib=4:6 mixture versus Ia) is “can be synergized to a larger extent than enantiomer Ia”. Besides, in the data set on T. confusum [1], the mortality at 25 µg/disc turned out to be 0%, the mortality at 50 µg/disc was determined as 18%, the mortality at 100 µg/disc was found to be 57% and the mortality at 200 µg/disc worked out at 90%. For the same molecule, the mortality at 400 µg/disc in the data set on T. confusum [1] amounted to 100%.
For the molecule `CC1(C)[C@H](C(=O)O[C@H](C#N)c2cccc(Oc3ccccc3)c2)[C@@H]1C=C(Cl)Cl` (relative stereo) [Ia], in the data set with house fly, the LD50 is around 0.45 mg/kg. Moreover, the Mortality % in the data set on Aphidinus matricariae (1 ppm, 1h) was determined as 100%; with Aphidinus matricariae (1 ppm, 5h), 100%; with Aphidinus matricariae (1 ppm, 24h), 96%; with Aphidinus matricariae (5 ppm, 1h), 100%. For the same molecule, the mortality at 25 µg/disc in the data set with T. confusum [2] and in the data set with T. confusum [1] was 0% throughout. The mortality at 50 µg/disc with T. confusum [2] and in the data set on T. confusum [1] was 0% throughout. Further, the mortality at 100 µg/disc in the data set on T. confusum [2] and with T. confusum [1] was 12% throughout. Moreover, the mortality at 200 µg/disc in the data set on T. confusum [2] and with T. confusum [1] was 53% throughout. Moreover, the mortality at 400 µg/disc in the data set on T. confusum [2] and in the data set on T. confusum [1] was 96% throughout.
`CC1(C)[C@H](C=C(Cl)Cl)[C@H]1C(=O)O[C@H](C#N)c1cccc(Oc2ccccc2)c1` (relative stereo) [Ib] showed a mortality at 0.023 µg/larva in the data set with Hyphantria cunea (0.023 μg/larvae) of 10%. Further, in the data set on Hyphantria cunea (0.047 μg/larvae), the mortality at 0.047 µg/larva stood at 15%. This molecule also showed a mortality at 0.094 µg/larva with Hyphantria cunea (0.094 μg/larvae) of 30%. In the data set with Hyphantria cunea (0.188 μg/larvae), the mortality at 0.188 µg/larva came to 70%. The same molecule had a mortality at 0.375 µg/larva in the data set on Hyphantria cunea (0.375 μg/larvae) of 80%. In addition, the LD50 in the data set with house fly was around 0.64 mg/kg. Besides, the “synergizability with piperonyl butoxide” value in the data set on T. confusum [2] (Ib versus Ia) is “can be synergized at a higher level than isomer pair Ia”. For the same molecule, the mortality at 25 µg/disc with T. confusum [2] turned out to be 0%. The molecule further came in with a mortality at 50 µg/disc with T. confusum [2] of 10%. In the data set with T. confusum [2], this molecule showed a mortality at 100 µg/disc of 51%. The same molecule registered a mortality at 200 µg/disc in the data set on T. confusum [2] of 85%. Further, in the data set with T. confusum [2], the mortality at 400 µg/disc was 100%. Further, the repellant effect result in the data set “Repellant effect” is listed as “outstandingly good”. Also, the toxicity on bees result in the data set with bees is reported as “very low toxicity on bees”. In the data set with T. confusum [3] (0.11 mg/disc), the mortality at 110 µg/disc was 90%. In addition, the mortality at 330 µg/disc in the data set with T. confusum [3] (0.33 mg/disc) was 100%. The mortality at 1000 µg/disc in the data set on T. confusum [3] (1.00 mg/disc) turned out to be 100%. In addition, the mortality at 3000 µg/disc with T. confusum [3] (3.00 mg/disc) stood at 100%. Further, the Mortality % in the data set on Acanthoscelides obtectus (dilution 50x) is recorded as 67%; in the data set with Acanthoscelides obtectus (dilution 100x), 53%; in the data set with Acanthoscelides obtectus (dilution 200x) it was 37%; in the data set on Acanthoscelides obtectus (dilution 400x), 20%; in the data set on Acanthoscelides obtectus (dilution 800x), 10%; in the data set with Acanthoscelides obtectus (dilution 1600x), 3%. Further, the LD50 expected with Musca domestica (harmonic average of the single isomers) was 24.5 ng/insect. Moreover, the synerg. factor with Musca domestica (quotient of expected and measured LD50) was determined as 1.92. Also, the LD50 measured in the data set on Musca domestica (topical, dorsal cuticulum, 24 hours) is reported as 12.8 ng/insect. For the same molecule, in data set [4] (0.05 μg/insect), the mortality at 0.05 µg/insect stood at 0%. In data set [4] (0.10 μg/insect), this molecule had a mortality at 0.1 µg/insect of 25%. In data set [4] (0.20 μg/insect), this molecule registered a mortality at 0.2 µg/insect of 75%. Besides, the mortality at 0.4 µg/insect in [4] (0.40 μg/insect) came to 85%.

(Values after patent publication US5110976A, “Insecticidal composition comprising more than one active ingredient” (priority 1985, dated 1992).)
